Measurements: patent US20050118290A1, “Compositions and method for treatment of steroid/nuclear receptor-mediated diseases” (University of Singapore, priority 2003, published 2005)
Converted amounts (≈) assume the structure as drawn. Blank lines part the entries; values can stand above or below the compound they belong to.

Experiments:
Format in all cases: cell-based
[1] = target: T1, human androgen receptor (Homo sapiens, UniProt P10275); experiment: AR (ARE)2-Luc luciferase reporter gene assay in HeLa cells
T1 construct: expressed in transfected cells; host or cells: HeLa
T1 sequence (P10275 1-920): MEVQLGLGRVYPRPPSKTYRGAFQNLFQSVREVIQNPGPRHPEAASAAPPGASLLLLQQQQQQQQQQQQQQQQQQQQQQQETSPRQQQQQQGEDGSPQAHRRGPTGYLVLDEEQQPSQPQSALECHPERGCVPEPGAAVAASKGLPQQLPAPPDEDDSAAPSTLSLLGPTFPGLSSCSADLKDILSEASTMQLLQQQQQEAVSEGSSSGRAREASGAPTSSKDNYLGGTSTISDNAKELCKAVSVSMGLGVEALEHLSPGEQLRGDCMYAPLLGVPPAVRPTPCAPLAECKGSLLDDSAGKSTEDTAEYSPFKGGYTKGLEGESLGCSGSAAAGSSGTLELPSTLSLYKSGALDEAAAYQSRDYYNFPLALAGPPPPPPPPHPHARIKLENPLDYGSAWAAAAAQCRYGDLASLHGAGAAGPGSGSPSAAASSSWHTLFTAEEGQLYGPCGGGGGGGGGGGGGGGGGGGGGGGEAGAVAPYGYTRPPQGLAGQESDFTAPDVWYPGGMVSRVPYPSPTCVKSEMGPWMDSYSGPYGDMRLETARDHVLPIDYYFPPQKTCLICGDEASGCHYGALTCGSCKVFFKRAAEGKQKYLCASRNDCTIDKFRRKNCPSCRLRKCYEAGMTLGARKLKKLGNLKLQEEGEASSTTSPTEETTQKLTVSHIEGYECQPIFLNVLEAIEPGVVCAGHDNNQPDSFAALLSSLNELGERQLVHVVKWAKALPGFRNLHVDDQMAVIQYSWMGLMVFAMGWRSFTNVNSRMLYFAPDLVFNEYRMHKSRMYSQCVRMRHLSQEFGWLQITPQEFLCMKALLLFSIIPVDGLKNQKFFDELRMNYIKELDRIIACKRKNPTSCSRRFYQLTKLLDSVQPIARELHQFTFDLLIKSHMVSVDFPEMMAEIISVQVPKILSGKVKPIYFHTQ
Description: (§1) The capacity of HQ extract to activate other steroid receptors, namely AR, PR, GR, ERα and ERβ was examined. […] The (ARE)2-Luc plasmid consist of two repeats of Androgen Response Element (ARE) cloned upstream of the Luciferase Reporter gene in a pGL3-Basic vector (Promega).
(§2) AR, PR, GR and ERα and […] were determined by comparing luciferase activity in test cells with control cells exposed to vehicle (i.e., ethanol or methanol) only, analogous to the determination of PPAR activity as described in the previous examples.

[2] = target: T2, PPARα (Homo sapiens, UniProt Q07869); experiment: Chimeric Gal4DBD-PPARαLBD receptor / UASg-luciferase reporter gene assay in HeLa cells; conditions: with WY14643 30×10^−6M
T2 construct: expressed in transfected cells; host or cells: HeLa
T2 sequence (Q07869 239-466 limits assumed): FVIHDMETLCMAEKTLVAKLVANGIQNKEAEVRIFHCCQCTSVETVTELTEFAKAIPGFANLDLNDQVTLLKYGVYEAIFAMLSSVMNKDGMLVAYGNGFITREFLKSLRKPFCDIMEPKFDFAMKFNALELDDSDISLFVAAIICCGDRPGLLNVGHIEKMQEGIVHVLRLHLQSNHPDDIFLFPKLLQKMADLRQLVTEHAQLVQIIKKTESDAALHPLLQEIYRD
Description: (§3) In an example of such a reporter gene assay, a plasmid containing chimeric Ga14DBD-PPARLBD receptor cDNA was constructed by excising the ligand binding domain (LBD) of full length PPARγ and PPARα and ligating the resulting fragments in frame to the Ga14-DNA binding domain (DBD) of Saccharomyces cerevisiae in a pM vector (Clontech). Specifically, to construct Ga14DBD-PPARγLBD plasmid, pSG5 expression vector (Stratagene) containing full length PPARγ was excised with Rsa I and blunt ligated to Hind III site of pMGa14DBD expression plasmid (Clontech). To construct Ga14DBD-PPARαLBD plasmid, pSG5 expression vector (Stratagene) containing full length PPARα was excised with BstU I and BamH I and blunt-end ligated in frame to BamH I site of pMGa14DBD expression plasmid (Clontech). […] Ga14 DBD binds very strongly to the exogenous UASg promoter, thereby giving rise to a sensitive and specific assay. To measure PPARγ and PPARα agonist activity, HeLa cells were grown in 24-well microtiter plates and then transiently co-transfected with the two plasmids (chimeric PPAR receptor and UASg reporter gene) using Lipofectamine (Invitrogen). […] Concurrently, cells exposed to known PPAR ligands served as positive controls. Replicate wells, exposed to the vehicle solvent (i.e., ethanol or methanol) in which herbal extracts were dissolved, were used as negative controls. After the 40 hr incubation period, cells were rinsed with phosphate buffered saline (PBS), lysis buffer was added, and cell lysates were collected for measurement of luciferase activity using a luminometer. […] All data points are in triplicate. The data points represent the mean of triplicate wells. Luciferase activity in such an assay accurately reflects the activity of any ligands on PPARγ or PPARα.

[3] = target: T3, Progesterone Receptor (Homo sapiens, UniProt P06401); experiment: PR (ARE)2-Luc luciferase reporter gene assay; conditions: Example 16; progesterone 100×10^−9M, 10 × 10^−9M (Table 11)
T3 construct: expressed in transfected cells; host or cells: HeLa (named for the formononetin and daidzein experiments)
T3 sequence (P06401 1-933): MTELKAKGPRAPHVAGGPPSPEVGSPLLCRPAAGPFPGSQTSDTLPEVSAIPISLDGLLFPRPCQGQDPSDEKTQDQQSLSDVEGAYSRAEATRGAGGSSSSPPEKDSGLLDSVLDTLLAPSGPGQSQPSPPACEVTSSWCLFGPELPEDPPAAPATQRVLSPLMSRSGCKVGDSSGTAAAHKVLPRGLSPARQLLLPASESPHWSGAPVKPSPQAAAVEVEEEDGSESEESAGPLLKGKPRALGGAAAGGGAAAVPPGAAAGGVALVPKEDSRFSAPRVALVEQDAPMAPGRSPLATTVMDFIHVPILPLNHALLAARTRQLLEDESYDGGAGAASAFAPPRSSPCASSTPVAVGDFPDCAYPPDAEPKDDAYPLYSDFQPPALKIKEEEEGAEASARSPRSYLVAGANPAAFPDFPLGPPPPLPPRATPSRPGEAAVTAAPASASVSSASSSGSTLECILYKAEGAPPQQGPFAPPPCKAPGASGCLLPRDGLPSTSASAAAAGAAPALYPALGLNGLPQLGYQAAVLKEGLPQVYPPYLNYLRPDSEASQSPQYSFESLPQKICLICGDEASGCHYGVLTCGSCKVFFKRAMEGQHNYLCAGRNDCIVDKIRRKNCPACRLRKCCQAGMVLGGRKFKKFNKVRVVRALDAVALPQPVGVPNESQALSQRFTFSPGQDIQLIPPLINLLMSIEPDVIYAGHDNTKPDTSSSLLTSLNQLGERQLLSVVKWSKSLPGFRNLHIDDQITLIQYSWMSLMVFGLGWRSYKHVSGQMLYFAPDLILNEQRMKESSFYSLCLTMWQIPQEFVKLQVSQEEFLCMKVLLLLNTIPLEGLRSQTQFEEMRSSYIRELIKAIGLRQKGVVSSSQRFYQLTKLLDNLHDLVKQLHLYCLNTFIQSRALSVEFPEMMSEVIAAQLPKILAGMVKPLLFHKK
Description: as §1, §2

[4] = target: T4, PPARγ (Homo sapiens, UniProt P37231); experiment: Chimeric Gal4DBD-PPARγLBD receptor / UASg-luciferase reporter gene assay in HeLa cells
T4 construct: expressed in transfected cells; host or cells: HeLa
T4 sequence (P37231 238-503 limits assumed): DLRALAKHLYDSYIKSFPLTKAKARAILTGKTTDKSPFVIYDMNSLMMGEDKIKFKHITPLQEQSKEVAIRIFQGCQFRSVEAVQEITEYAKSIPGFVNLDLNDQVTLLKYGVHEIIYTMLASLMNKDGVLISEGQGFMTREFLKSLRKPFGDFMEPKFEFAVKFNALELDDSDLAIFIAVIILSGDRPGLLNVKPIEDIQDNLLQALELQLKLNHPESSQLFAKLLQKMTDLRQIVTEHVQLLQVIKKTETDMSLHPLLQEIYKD
Description: as §3

[5] = GW9662 0.1 ×10^−6M (first line)
[6] = GW9662 0.1 ×10^−6M (second line, r12)

Compound: 3′,7-Dihydroxy-4′-methoxyisoflavone [calycosin]
increase of the activity of maximal doses of AR agonist ([1]; with dihydrotestosterone 1×10^−9M): 3 fold | increase of the activity of maximal doses of PPARα agonist [2]: 7 fold | increase of the activity of maximal doses of PR agonist [3]: 3 fold

Compound: CCCCC/C=C/C=C1/C(=O)C=C[C@@H]1C/C=C\CCCC(=O)O [Compound 15DPGJ2, 15-deoxy-δ12,14, Prostaglandin J2, reference compound]
EC50 (PPARγ activity) ([4]; FIG. 1A, HeLa cells): 0.5 µg/mL (≈ 1.58 µM)

Luciferase activity (% Pioglitazone 30 × 100^−6M ± SE), Piogliltazone (30 × 10^−6M) [4, 5]: 97 ± 23.8% | Luciferase activity (% Pioglitazone 30 × 100^−6M ± SE), Vehicle (DMSO) [4, 5]: 13.8 ± 0.207% | Luciferase activity (% Pioglitazone 30 × 100^−6M ± SE), Piogliltazone (30 × 10^−6M) [4, 6]: 114 ± 5% | Luciferase activity (% Pioglitazone 30 × 100^−6M ± SE), Vehicle (DMSO) [4, 6]: 13.8 ± 2.28% | Luciferase activity (% Pioglitazone 30 × 100^−6M ± SE), Piogliltazone (30 × 10^−6M) ([4]; GW9662 1 ×10^−6M): 77.2 ± 11.4% | Luciferase activity (% Pioglitazone 30 × 100^−6M ± SE), Vehicle (DMSO) ([4]; GW9662 1 ×10^−6M): 23.5 ± 2.74% | Luciferase activity (% Pioglitazone 30 × 100^−6M ± SE), Piogliltazone (30 × 10^−6M) ([4]; GW9662 10 ×10^−6M): 40.6 ± 12.3% | Luciferase activity (% Pioglitazone 30 × 100^−6M ± SE), Vehicle (DMSO) ([4]; GW9662 10 ×10^−6M): 39.3 ± 4.38% | PPARγ activity on its own ([4]; Table 12): weak PPARγ agonistic activity | doses that inhibited the PPARγ effects of pioglitazone ([4]; with pioglitazone 30 × 10^−6M, dose-dependent): above 1 ×10^−6M
Compound: O=C(Nc1ccccc1)c1cc([N+](=O)[O-])ccc1Cl [GW9662, reference compound]

Luciferase activity ± SEM (% ciglitazone 10 × 10^−6 M), substance alone ([4]; 0.1 ×10^−6 g/mL): 15.4 ± 0.81% | Luciferase activity ± SEM (% ciglitazone 10 × 10^−6 M), substance alone ([4]; 0.3 ×10^−6 g/mL): 21.7 ± 1.52% | Luciferase activity ± SEM (% ciglitazone 10 × 10^−6 M), substance alone ([4]; 1.0 ×10^−6 g/mL): 55.3 ± 7.99% | Luciferase activity ± SEM (% ciglitazone 10 × 10^−6 M), substance alone ([4]; 3.0 ×10^−6 g/mL): 100 ± 6.13% | Luciferase activity ± SEM (% ciglitazone 10 × 10^−6 M), HQ extract + ciglitazone 10 × 10^−6 M ([4]; HQ extract 0.0 ×10^−6 g/mL (ciglitazone 10 × 10^−6 M only)): 100 ± 2.91%
Compound: CC1(COc2ccc(CC3SC(=O)NC3=O)cc2)CCCCC1 (stereo not shown) [ciglitazone, reference compound]

Compound: O=c1c(-c2ccc(O)cc2)coc2cc(O)cc(O)c12 [genistein]
intrinsic agonistic AR activity ([1]; 0.1 to 30×10^−6M, no dihydrotestosterone): does not display any intrinsic agohistic AR activity | further increase of the activity of saturating doses of dihydrotestosterone ([1]; dihydrotestosterone 10×10^−9M, FIG. 2A): 5 fold | effect on the activity of dihydrotestosterone on AR ([1]; fixed 3×10^−6 M, dihydrotestosterone 0.01 to 10×10^−9M, FIG. 2B): augmented | Luciferase activity (Fold ± SE), PPAR activity at fixed dose ([4]; GW9662 0 ×10^−6M, fixed doses: HQ Water extract 8 × 10^−6 g/mL, HQ DCM extract 50 × 10^−6 g/mL, Formononetin, Genistein 10 × 10^−6 M): 7.37 ± 0.128 Fold | Luciferase activity (Fold ± SE), PPAR activity at fixed dose ([4]; GW9662 0.3 ×10^−6M, fixed doses): 93.6 ± 2.47 Fold | Luciferase activity (Fold ± SE), PPAR activity at fixed dose ([4]; GW9662 1 ×10^−6M, fixed doses): 83.9 ± 4.37 Fold | Luciferase activity (Fold ± SE), PPAR activity at fixed dose ([4]; GW9662 3 ×10^−6M, fixed doses): 82.5 ± 2.63 Fold | Luciferase activity (Fold ± SE), PPAR activity at fixed dose ([4]; GW9662 10 ×10^−6M, fixed doses): 67.4 ± 1.52 Fold | Luciferase activity (Fold ± SE), PPAR activity at fixed dose ([4]; GW9662 30 ×10^−6M, fixed doses): 39.5 ± 0.403 Fold
